Data taken from patent US20220089592A1, “IMIDAZO[1,2-A]PYRIDINYL DERIVATIVES AS IRAK4 INHIBITORS” (priority 2019, published 2022).

Columns and labels:
[1] = biological target: T1, IRAK4 (Homo sapiens, UniProt Q9NWZ3); assay: 2-hour 10 μM ATP Biochemical Assay (MesoScale Detection format; IRAK4 phosphorylation of biotin labeled IRAK1 activation loop peptide); details: IRAK4 MSD BIOCHEMICAL (10 μM ATP) IC50 (μM), 1 nM IRAK4, 2 hours
T1 sequence (Q9NWZ3 1-460): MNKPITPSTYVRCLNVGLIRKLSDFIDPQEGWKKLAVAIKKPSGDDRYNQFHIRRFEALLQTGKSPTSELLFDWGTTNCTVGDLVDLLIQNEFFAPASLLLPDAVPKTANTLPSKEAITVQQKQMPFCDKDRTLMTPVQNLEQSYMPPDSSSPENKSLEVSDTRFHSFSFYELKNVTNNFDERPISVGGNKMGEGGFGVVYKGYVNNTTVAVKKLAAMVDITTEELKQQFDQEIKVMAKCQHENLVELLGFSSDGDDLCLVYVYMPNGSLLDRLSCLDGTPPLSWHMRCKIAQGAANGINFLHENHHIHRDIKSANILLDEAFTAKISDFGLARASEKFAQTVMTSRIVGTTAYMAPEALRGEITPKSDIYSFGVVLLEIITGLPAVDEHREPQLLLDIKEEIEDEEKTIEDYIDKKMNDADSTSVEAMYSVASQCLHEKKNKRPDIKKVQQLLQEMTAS
Outline: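 Kinase reaction run 2 h at 10 μM ATP with biotinylated IRAK1 activation-loop peptide, quenched with EDTA. Phospho-peptide captured on streptavidin MSD plates and detected with anti-phosphothreonine rabbit antibody plus Sulfo-Tag anti-rabbit electrochemiluminescence.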

[2] = biological target: T1, IRAK4; assay: 2-hour 1 mM ATP IRAK4 Biochemical assay (as above, but with 100 pM IRAK4 and 1 mM ATP); details: IRAK4 MSD BIOCHEMICAL (1 mM ATP) IC50 (μM), 100 pM IRAK4, 2 hours
Outline: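 Run with 100 pM IRAK4 and 1 mM ATP for 2 hours, quenched with EDTA pH 8. Phosphorylated biotinylated peptide captured on streptavidin MSD plates and detected with anti-phosphothreonine antibody plus Sulfo-Tag secondary by electrochemiluminescence.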

| SMILES | IC50 [1] [µM] | IC50 [2] [µM] |
| --- | --- | --- |
| CCOc1cc2nc(C3(OC)CC3)cn2cc1NC(=O)c1cccc(C(F)F)n1 [Example 128, 6-(difluoromethyl)-N-(7-ethoxy-2-(1-methoxycyclopropyl)imidazo[1,2-a]pyridin-6-yl)picolinamide] | 0.002 | 0.007 |
| CCOc1cc2nc(C3CCOCC3)cn2cc1NC(=O)c1cccc(OCCOC)n1 [Example 516, N-(7-ethoxy-2-(tetrahydro-2H-pyran-4-yl)imidazo[1,2-a]pyridin-6-yl)-6-(2-methoxyethoxy)picolinamide] | 0.007 | 0.034 |
| O=C1CC[C@@H](CCOc2cc3nc(C4CC4)cn3cc2NC(=O)c2cccc(C(F)F)n2)N1 [Example 73, (S)—N-(2-cyclopropyl-7-(2-(5-oxopyrrolidin-2-yl)ethoxy)imidazo[1,2-a]pyridin-6-yl)-6-(difluoromethyl)picolinamide] | 0.011 | 0.032 |
| O=C(Nc1cn2cc(C3CC3)nc2cc1N1CCN(CC(F)F)CC1)c1cccc(C(F)(F)F)n1 [Example 24, N-(2-cyclopropyl-7-(4-(2,2-difluoroethyl)piperazin-1-yl)imidazo[1,2-a]pyridin-6-yl)-6-(trifluoromethyl)picolinamide] | 0.002 | 0.004 |
| CCOc1cc2nc(COC)cn2cc1NC(=O)c1cccc(C(F)(F)F)n1 [Example 56, N-(7-ethoxy-2-(methoxymethyl)imidazo[1,2-a]pyridin-6-yl)-6-(trifluoromethyl)picolinamide] | 0.005 | 0.014 |
| CC1(COc2cc3nc(C[C@@H]4CCOC4)cn3cc2NC(=O)c2cccc(C(F)(F)F)n2)COC1 (single isomer, unassigned) [Example 164] | 0.003 | 0.005 |
| O=C(Nc1ccc2nc(CC3CCOC3)cn2c1)c1cccc(C(F)F)n1 (centres unmarked) [Example 355, 6-(difluoromethyl)-N-(2-((tetrahydrofuran-3-yl)methyl)imidazo[1,2-a]pyridin-6-yl)picolinamide] | 0.008 | 0.042 |
| CC1(COc2cc3nc(C4CCOCC4)cn3cc2NC(=O)c2cccc(C(F)(F)F)n2)COC1 [Example 166, N-(7-((3-methyloxetan-3-yl)methoxy)-2-(tetrahydro-2H-pyran-4-yl)imidazo[1,2-a]pyridin-6-yl)-6-(trifluoromethyl)picolinamide] | 0.002 | 0.009 |
| CC(C)Oc1c(NC(=O)c2cnn3cccnc23)cn2cc(C34COC(C)(C3)C4)nc2c1F [Example 577, N-(8-fluoro-7-isopropoxy-2-(1-methyl-2-oxabicyclo[2.1.1]hexan-4-yl)imidazo[1,2-a]pyridin-6-yl)pyrazolo[1,5-a]pyrimidine-3-carboxamide] | 0.003 | 0.001 |
| CCOc1cc2nc(CC3CCOC3)cn2cc1NC(=O)c1ccc2c(n1)CCC2 (centres unmarked) [Example 369, N-(7-ethoxy-2-((tetrahydrofuran-3-yl)methyl)imidazo[1,2-a]pyridin-6-yl)-6,7-dihydro-5H-cyclopenta[b]pyridine-2-carboxamide] | 0.002 | 0.026 |
| CCOc1cc2nc(C3CCOCC3)cn2cc1NC(=O)c1ccc(F)cn1 [Example 219, N-(7-ethoxy-2-(tetrahydro-2H-pyran-4-yl)imidazo[1,2-a]pyridin-6-yl)-5-fluoropicolinamide] | 0.007 | 0.055 |
| CCOc1cc2nc(C3CCOCC3)cn2cc1NC(=O)c1csc(C)n1 [Example 223, N-(7-ethoxy-2-(tetrahydro-2H-pyran-4-yl)imidazo[1,2-a]pyridin-6-yl)-2-methylthiazole-4-carboxamide] | 0.004 | 0.01 |
| CCOc1cc2nc(C(C)(C)O)cn2cc1NC(=O)c1cccc(C(F)(F)F)n1 [Example 19, N-(7-ethoxy-2-(2-hydroxypropan-2-yl)imidazo[1,2-a]pyridin-6-yl)-6-(trifluoromethyl)picolinamide] | 0.009 | 0.044 |
| CCOc1cc2nc(C3CC3)cn2cc1NC(=O)c1cccc(C(F)(F)F)n1 [Example 2, N-(2-cyclopropyl-7-ethoxyimidazo[1,2-a]pyridin-6-yl)-6-(trifluoromethyl)picolinamide] | 0.003 | 0.016 |
| CCOc1cc2nc(C3CC3)cn2cc1NC(=O)c1cccc(C2CCOC2)n1 (centres unmarked) [Example 238, N-(2-cyclopropyl-7-ethoxyimidazo[1,2-a]pyridin-6-yl)-6-(tetrahydrofuran-3-yl)picolinamide] | 0.004 | 0.015 |
| CCOc1cc2nc([C@H]3C[C@@H]3F)cn2cc1NC(=O)c1cccc(C(F)F)n1 (stereo in doubt) [Example 253, 6-(difluoromethyl)-N-(7-ethoxy-2-((1R*,2S*)-2-fluorocyclopropyl)imidazo[1,2-a]pyridin-6-yl)picolinamide] | 0.002 | 0.005 |
| COc1cc2nc(C3CC3)cn2cc1NC(=O)c1cccc(C(F)F)n1 [Example 4, N-(2-cyclopropyl-7-methoxyimidazo[1,2-a]pyridin-6-yl)-6-(difluoromethyl)picolinamide] | 0.004 | 0.015 |
| O=C(Nc1cn2cc(C3CC3)nc2cc1OCC1CC1)c1cccc(C(F)F)n1 [Example 25, N-(2-cyclopropyl-7-(cyclopropylmethoxy)imidazo[1,2-a]pyridin-6-yl)-6-(difluoromethyl)picolinamide] | 0.002 | 0.004 |
| CCOc1cc2nc(C(C)(C)C#N)cn2cc1NC(=O)c1cccc(C(F)F)n1 [Example 152, N-(2-(2-cyanopropan-2-yl)-7-ethoxyimidazo[1,2-a]pyridin-6-yl)-6-(difluoromethyl)picolinamide] | 0.004 | 0.004 |
| CCOc1cc2nc(C(C)(C)O)cn2cc1NC(=O)c1cccc(C(F)F)n1 [Example 100, 6-(difluoromethyl)-N-(7-ethoxy-2-(2-hydroxypropan-2-yl)imidazo[1,2-a]pyridin-6-yl)picolinamide] | 0.008 | 0.011 |

These reach a lower IC50 [1]. Values come first.

| IC50 [1] [µM] | IC50 [2] [µM] | SMILES |
| --- | --- | --- |
| 0.001 | 0.001 | CCOc1cc2nc(C3CCCOC3)cn2cc1NC(=O)c1cccc(C(F)(F)F)n1 (centres unmarked) [Example 112, N-(7-ethoxy-2-(tetrahydro-2H-pyran-3-yl)imidazo[1,2-a]pyridin-6-yl)-6-(trifluoromethyl)picolinamide] |
| 0.001 | 0.011 | CCOc1cc2nc(C3CCOCC3)cn2cc1NC(=O)c1scc2c1OCCO2 [Example 221, N-(7-ethoxy-2-(tetrahydro-2H-pyran-4-yl)imidazo[1,2-a]pyridin-6-yl)-2,3-dihydrothieno[3,4-b][1,4]dioxine-5-carboxamide] |
| 0.001 | 0.002 | CCOc1cc2nc(C3CNC3)cn2cc1NC(=O)c1cccc(C(F)(F)F)n1 [Example 61, N-(2-(azetidin-3-yl)-7-ethoxyimidazo[1,2-a]pyridin-6-yl)-6-(trifluoromethyl)picolinamide] |
| 0.001 | 0.001 | CCOc1cc2nc(C(C)C3CCOC3)cn2cc1NC(=O)c1cccc(C(F)(F)F)n1 (mixture of isomers) [Example 137, N-(7-ethoxy-2-(1-(tetrahydrofuran-3-yl)ethyl)imidazo[1,2-a]pyridin-6-yl)-6-(trifluoromethyl)picolinamide] |
| 0.001 | 0.001 | CCOc1cc2nc([C@H](F)[C@H]3CCOC3)cn2cc1NC(=O)c1cccc(C(F)(F)F)n1 (single isomer, unassigned) [Example 146] |
| 0.001 | 0.002 | CC1(C)CC(Oc2cc3nc(C4CCOCC4)cn3cc2NC(=O)c2cccc(C(F)F)n2)CO1 (centres unmarked) [Example 184, 6-(difluoromethyl)-N-(7-((5,5-dimethyltetrahydrofuran-3-yl)oxy)-2-(tetrahydro-2H-pyran-4-yl)imidazo[1,2-a]pyridin-6-yl)picolinamide] |
| 0.001 | 0.003 | CCOc1cc2nc(C3CCOCC3)cn2cc1NC(=O)c1cccc(C)n1 [Example 224, N-(7-ethoxy-2-(tetrahydro-2H-pyran-4-yl)imidazo[1,2-a]pyridin-6-yl)-6-methylpicolinamide] |
| 0.001 | 0.002 | CCOc1cc2nc([C@@H](F)[C@@H]3CCOC3)cn2cc1NC(=O)c1cccc(C(F)(F)F)n1 (single isomer, unassigned) [Example 145] |
| 0.001 | 0.001 | CCOc1cc2nc([C@@H](C)[C@@H]3CCOC3)cn2cc1NC(=O)c1cccc(C(F)(F)F)n1 (single isomer, unassigned) [Example 140] |
| 0.001 | 0.001 | CCOc1cc2nc(C3CCOCC3)cn2cc1NC(=O)c1csc(C2CC2)n1 [Example 203, 2-cyclopropyl-N-(7-ethoxy-2-(tetrahydro-2H-pyran-4-yl)imidazo[1,2-a]pyridin-6-yl)thiazole-4-carboxamide] |
| 0.001 | 0.005 | CCOc1cc2nc(CC3COCCO3)cn2cc1NC(=O)c1cccc(C(F)F)n1 (centres unmarked) [Example 83, N-(2-((1,4-dioxan-2-yl)methyl)-7-ethoxyimidazo[1,2-a]pyridin-6-yl)-6-(difluoromethyl)picolinamide] |
